The numbers were not newly measured in US9304123B2, “Biomarkers used to detect and monitor neurological autoimmune diseases” (NUtech Ventures, priority 2012, dated 2016), which cites them from elsewhere.

The test system of the series is EAE. The settings on record: animal models.

On to `CN(C)C(=N)N=C(N)N` [Metformin], for which the “effect on EAE progression” value is “attenuate EAE progression”.
